Experimental findings from PubChem BioAssay AID256 (DTP/NCI, 2004) are described below.

For the test, the system named is CD2F1 mice, L1210 leukemia ip, survival T/C. Put plainly: NCI In Vivo Anticancer Drug Screen. Data for tumor model L1210 Leukemia (intraperitoneal) in CD2F1 (CDF1) mice. Particulars: higher = longer survival. Put shortly:
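In this screen, transplantable tumors were grown in mice given either the compound or its vehicle. Results were expressed as the treated measurement relative to the control measurement.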

The mark [1] stands for this setting: endpoint: mean survival time, dose: 100.0 mg/kg/injection, schedule: Q01DX009 (ip), vehicle: saline with Tween-80.
Where [2] appears, read: endpoint: mean survival time, dose: 200.0 mg/kg/injection, schedule: Q01DX009 (ip), vehicle: saline with Tween-80.
Where [3] appears, read: endpoint: mean survival time, dose: 400.0 mg/kg/injection, schedule: Q01DX009 (ip), vehicle: saline with Tween-80.
Setting [4] is: endpoint: mean survival time, dose: 100.0 mg/kg/injection, schedule: Q01DX001 (ip), vehicle: saline.
The mark [5] stands for this setting: endpoint: mean survival time, dose: 200.0 mg/kg/injection, schedule: Q01DX001 (ip), vehicle: saline.
The mark [6] stands for this setting: endpoint: mean survival time, dose: 400.0 mg/kg/injection, schedule: Q01DX001 (ip), vehicle: saline.
Setting [7] is: endpoint: mean survival time, dose: 100.0 mg/kg/injection, schedule: Q04DX003 (ip), vehicle: saline with Tween-80.
Where [8] appears, read: endpoint: mean survival time, dose: 200.0 mg/kg/injection, schedule: Q04DX003 (ip), vehicle: saline with Tween-80.
Where [9] appears, read: endpoint: mean survival time, dose: 400.0 mg/kg/injection, schedule: Q04DX003 (ip), vehicle: saline with Tween-80.

Values joined by “and” are separate entries in the source; they are usually repeats but may differ in a detail not shown here. Equal values may be shown once. Inconclusive results and toxic doses are left out.

In the case of `[O-][n+]1ccnc2c1cnn2C1OC(CO)C(O)C1O` (stereo not drawn), the T/C reads like this: (endpoint: mean survival time, dose: 12.5 mg/kg/injection, schedule: Q04DX003 (ip), vehicle: water) 104 % of control; (endpoint: mean survival time, dose: 25.0 mg/kg/injection, schedule: Q04DX003 (ip), vehicle: water) 104 % of control; (endpoint: mean survival time, dose: 50.0 mg/kg/injection, schedule: Q04DX003 (ip), vehicle: water) 101 % of control; (endpoint: mean survival time, dose: 100.0 mg/kg/injection, schedule: Q04DX003 (ip), vehicle: water) 101 % of control; (endpoint: mean survival time, dose: 200.0 mg/kg/injection, schedule: Q04DX003 (ip), vehicle: water) 101 % of control.

In the case of `Cc1cc2ncn(CO)c2cc1C`, the T/C runs as follows: under setting [1], 105 % of control; under setting [2], 100 % of control; under setting [3], 111 % of control.

Consider `COC(=O)CC(CC(=O)OC)N1CCCC1`, for which the T/C was 102 % of control under setting [4], 102 % of control under setting [5] and 102 % of control under setting [6].

For `Fc1ccc2nc(C(F)(F)F)cc(Br)c2c1`, the T/C is 103 % of control under setting [7], 98 % of control under setting [8] and 101 % of control under setting [9].

Take `CC(=O)O.[La]`: the T/C under setting [5] is 94 % of control.

For the compound `Nc1cccc2sccc12`, the T/C by setting is: (endpoint: mean survival time, dose: 100.0 mg/kg/injection, schedule: Q04DX003 (ip), vehicle: other) 106 % of control; (endpoint: mean survival time, dose: 200.0 mg/kg/injection, schedule: Q04DX003 (ip), vehicle: other) 113 % of control; (endpoint: mean survival time, dose: 400.0 mg/kg/injection, schedule: Q04DX003 (ip), vehicle: other) 101 % of control.

`O=C1C=C(C2OC(CI)C(O)C2O)C(=O)N1` (stereo not drawn): the T/C is, setting by setting: (endpoint: mean survival time, dose: 12.5 mg/kg/injection, schedule: Q01DX005 (ip), vehicle: water) 109 % of control; (endpoint: mean survival time, dose: 25.0 mg/kg/injection, schedule: Q01DX005 (ip), vehicle: water) 107 % of control.

For the compound `CC([O-])C(=O)[O-].NCC1CCC1CN.[Pt+4]` (stereo not drawn), the T/C reads like this: (endpoint: median survival time, dose: 0.78 mg/kg/injection, schedule: Q04DX003 (ip), vehicle: saline) 114 % of control; (endpoint: median survival time, dose: 1.56 mg/kg/injection, schedule: Q04DX003 (ip), vehicle: saline) 120 % of control; (endpoint: median survival time, dose: 3.12 mg/kg/injection, schedule: Q04DX003 (ip), vehicle: saline) 156 % of control; (endpoint: median survival time, dose: 6.25 mg/kg/injection, schedule: Q04DX003 (ip), vehicle: saline) 156 % of control; (endpoint: median survival time, dose: 12.5 mg/kg/injection, schedule: Q04DX003 (ip), vehicle: saline) 192 % of control and 341 % of control; (endpoint: median survival time, dose: 25.0 mg/kg/injection, schedule: Q04DX003 (ip), vehicle: saline) 168 % of control and 223 % of control.

For the compound `NCC(=O)Nc1ccc(Cl)cc1C(=O)c1ccc[nH]1`, the T/C runs as follows: under setting [4], 89 % of control; (endpoint: mean survival time, dose: 100.0 mg/kg/injection, schedule: Q04DX003 (ip), vehicle: saline) 94 % of control; under setting [5], 89 % of control; (endpoint: mean survival time, dose: 200.0 mg/kg/injection, schedule: Q04DX003 (ip), vehicle: saline) 94 % of control; under setting [6], 92 % of control; (endpoint: mean survival time, dose: 400.0 mg/kg/injection, schedule: Q04DX003 (ip), vehicle: saline) 96 % of control.

Regarding `O=c1ssc(=Nc2ccccc2)n1-c1ccccc1`, the T/C is 103 % of control (endpoint: mean survival time, dose: 12.5 mg/kg/injection, schedule: Q01DX009 (ip), vehicle: Klucel (hydroxypropylcellulose) (HPC)); 93 % of control and 102 % of control (endpoint: mean survival time, dose: 25.0 mg/kg/injection, schedule: Q01DX009 (ip), vehicle: Klucel (hydroxypropylcellulose) (HPC)); 98 % of control and 110 % of control (endpoint: mean survival time, dose: 50.0 mg/kg/injection, schedule: Q01DX009 (ip), vehicle: Klucel (hydroxypropylcellulose) (HPC)); 103 % of control and 108 % of control (endpoint: mean survival time, dose: 100.0 mg/kg/injection, schedule: Q01DX009 (ip), vehicle: Klucel (hydroxypropylcellulose) (HPC)); 98 % of control and 102 % of control (endpoint: mean survival time, dose: 200.0 mg/kg/injection, schedule: Q01DX009 (ip), vehicle: Klucel (hydroxypropylcellulose) (HPC)); 117 % of control and 104 % of control (endpoint: mean survival time, dose: 400.0 mg/kg/injection, schedule: Q01DX009 (ip), vehicle: Klucel (hydroxypropylcellulose) (HPC)).

Turning to `C/C=C/C=C1/OC(C)=C(C(C)=O)C1=O`, the T/C reads like this: (endpoint: mean survival time, dose: 12.5 mg/kg/injection, schedule: Q01DX009 (ip), vehicle: saline with Tween-80) 96 % of control and 97 % of control; (endpoint: mean survival time, dose: 25.0 mg/kg/injection, schedule: Q01DX009 (ip), vehicle: saline with Tween-80) 90 % of control and 95 % of control; (endpoint: mean survival time, dose: 50.0 mg/kg/injection, schedule: Q01DX009 (ip), vehicle: saline with Tween-80) 90 % of control and 109 % of control; under setting [1], 100 % of control and 106 % of control; under setting [2], 100 % of control.

Consider `O=Cc1ccc(C=O)cc1`, for which the T/C is 104 % of control under setting [1], 98 % of control under setting [2] and 96 % of control under setting [3].

For `CC(=O)Nc1c[n+]([O-])cc2ccccc12`, the T/C reads like this: under setting [1], 105 % of control; under setting [7], 94 % of control; under setting [2], 98 % of control; under setting [8], 96 % of control; under setting [3], 100 % of control; under setting [9], 94 % of control.

Turning to `COC1OCCC(C)O1` (stereo not drawn), the T/C by setting is: (endpoint: mean survival time, dose: 100.0 mg/kg/injection, schedule: Q04DX002 (ip), vehicle: saline) 104 % of control; (endpoint: mean survival time, dose: 200.0 mg/kg/injection, schedule: Q04DX002 (ip), vehicle: saline) 104 % of control; (endpoint: mean survival time, dose: 400.0 mg/kg/injection, schedule: Q04DX002 (ip), vehicle: saline) 107 % of control.

Consider `COCC(OC)C(OC)C(OC)C(C=O)OC` (stereo not drawn), for which the T/C (endpoint: mean survival time, dose: 50.0 mg/kg/injection, schedule: Q01DX001 (ip), vehicle: Klucel (hydroxypropylcellulose) (HPC)) is 99 % of control; the T/C (endpoint: mean survival time, dose: 100.0 mg/kg/injection, schedule: Q01DX001 (ip), vehicle: Klucel (hydroxypropylcellulose) (HPC)) is 99 % of control; the T/C (endpoint: mean survival time, dose: 200.0 mg/kg/injection, schedule: Q01DX001 (ip), vehicle: Klucel (hydroxypropylcellulose) (HPC)) is 105 % of control.

Consider `CC1=CCc2c(c(NS(=O)(=O)c3ccccc3)c3ccccc3c2NS(=O)(=O)c2ccccc2)C1`, for which the T/C is 95 % of control (endpoint: mean survival time, dose: 37.5 mg/kg/injection, schedule: Q01DX001 (ip), vehicle: saline sonified); 96 % of control (endpoint: mean survival time, dose: 75.0 mg/kg/injection, schedule: Q01DX001 (ip), vehicle: saline sonified); 89 % of control (endpoint: mean survival time, dose: 150.0 mg/kg/injection, schedule: Q01DX001 (ip), vehicle: saline sonified).

As to `Cc1[nH]c(=S)[nH]c(=O)c1Cc1c(O)ccc2ccccc12`, the T/C reads like this: under setting [4], 97 % of control; under setting [5], 100 % of control; under setting [6], 103 % of control.

As for `NC(N)=NC(N)=Nc1ccc(-c2ccc(N=C(N)N=C(N)N)cc2)cc1`, the T/C was 100 % of control (endpoint: mean survival time, dose: 0.78 mg/kg/injection, schedule: Q01DX009 (ip), vehicle: saline); 105 % of control (endpoint: mean survival time, dose: 1.56 mg/kg/injection, schedule: Q01DX009 (ip), vehicle: saline); 102 % of control (endpoint: mean survival time, dose: 3.13 mg/kg/injection, schedule: Q01DX009 (ip), vehicle: saline); 111 % of control (endpoint: mean survival time, dose: 6.25 mg/kg/injection, schedule: Q01DX009 (ip), vehicle: saline); 104 % of control (endpoint: mean survival time, dose: 12.5 mg/kg/injection, schedule: Q01DX009 (ip), vehicle: saline); 111 % of control (endpoint: mean survival time, dose: 25.0 mg/kg/injection, schedule: Q01DX009 (ip), vehicle: saline).

In the case of `CCOC(=O)CCN1CCCC2(C1)OCCO2`, the T/C is 109 % of control (endpoint: mean survival time, dose: 12.5 mg/kg/injection, schedule: Q04DX002 (ip), vehicle: saline); 95 % of control (endpoint: mean survival time, dose: 25.0 mg/kg/injection, schedule: Q04DX002 (ip), vehicle: saline); 98 % of control (endpoint: mean survival time, dose: 50.0 mg/kg/injection, schedule: Q04DX002 (ip), vehicle: saline).

Regarding `Cc1cc(=O)n2c3c(c4c(cc13)c(CN(C)C)cc(=O)n4C)OC2`, the T/C was 110 % of control (endpoint: median survival time, dose: 6.0 mg/kg/injection, schedule: Q01DX009 (ip), vehicle: saline with Tween-80); 101 % of control (endpoint: median survival time, dose: 12.0 mg/kg/injection, schedule: Q01DX009 (ip), vehicle: saline with Tween-80); 100 % of control (endpoint: median survival time, dose: 12.5 mg/kg/injection, schedule: Q01DX009 (ip), vehicle: saline with Tween-80); 119 % of control and 110 % of control (endpoint: median survival time, dose: 25.0 mg/kg/injection, schedule: Q01DX009 (ip), vehicle: saline with Tween-80); 97 % of control (endpoint: median survival time, dose: 100.0 mg/kg/injection, schedule: Q01DX009 (ip), vehicle: saline with Tween-80).
